Experimental data: US7585874B2, “Aryl-isoxazol-4-yl-imidazo[1,2-a]pyridine derivatives” (Hoffmann-La Roche Inc., priority 2006, dated 2009)

Biological target: T1, GABA A receptor α5β3γ2 (Homo sapiens, UniProt P18507+P31644)
T1 construct: expressed in transfected cells; host or cells: HEK293 (transiently transfected; membranes)
Assay: [3H]flumazenil competition binding, membranes of HEK293 cells expressing human GABA A α5β3γ2
Settings: human α5β3γ2 in HEK293 (transiently transfected); 0.5 nM [3H]flumazenil; 1 hour at 4° C.; means of two determinations; read-out: Ki[nM]hα5
Experimental: The affinity of compounds at GABA A receptor subtypes was measured by competition for [3H]flumazenil (85 Ci/mmol; Roche) binding to HEK293 cells expressing rat (stably transfected) or human (transiently transfected) receptors of composition α1β3γ2, α2β3γ2, α3β3γ2 and α5β3γ2.
Cell pellets were suspended in Krebs-tris buffer (4.8 mM KCl, 1.2 mM CaCl2, 1.2 mM MgCl2, 120 mM NaCl, 15 mM Tris; pH 7.5; binding assay buffer), homogenized by polytron for ca. 20 sec on ice and centrifuged for 60 min at 4° C. (50000 g; Sorvall, rotor: SM24=20000 rpm). The cell pellets were resuspended in Krebs-tris buffer and homogenized by polytron for ca. 15 sec on ice. Protein was measured (Bradford method, Bio-Rad) and aliquots of 1 mL were prepared and stored at −80° C.
Radioligand binding assays were carried out in a volume of […] (96-well plates) which contained […] of cell membranes, [3H]flumazenil at a concentration of 1 nM for α1, α2, α3 subunits and 0.5 nM for α5 subunits and the test compound in the range of […]. Nonspecific binding was defined by 10^−5 M diazepam and typically represented less than 5% of the total binding. Assays were incubated to equilibrium for 1 hour at 4° C. and harvested onto GF/C uni-filters (Packard) by filtration using a Packard harvester and washing with ice-cold wash buffer 50 mM Tris; pH 7.5). After drying, filter-retained radioactivity was detected by liquid scintillation counting. Ki values were calculated using Excel-Fit (Microsoft) and are the means of two determinations.

Row | Ki | Structure (SMILES)
1 | 85.5 nM | Cc1onc(-c2ccccc2)c1-c1cn2cc(C(=O)NCc3ccncc3)ccc2n1 [Example 42, 2-(5-Methyl-3-phenyl-isoxazol-4-yl)-imidazo[1,2-a]pyridine-6-carboxylic acid (pyridin-4-ylmethyl)-amide]
2 | 41.2 nM | Cc1onc(-c2ccccc2)c1-c1cn2cc(C(=O)NCc3cccnc3)ccc2n1 [Example 41, 2-(5-Methyl-3-phenyl-isoxazol-4-yl)-imidazo[1,2-a]pyridine-6-carboxylic acid (pyridin-3-ylmethyl)-amide]
3 | 19.8 nM | Cc1onc(-c2ccccc2)c1-c1cn2cc(C(=O)NC3CCC3)ccc2n1 [Example 34, 2-(5-Methyl-3-phenyl-isoxazol-4-yl)-imidazo[1,2-a]pyridine-6-carboxylic acid cyclobutylamide]
4 | 124 nM | Cc1onc(-c2ccccc2)c1-c1cn2ccc(C(=O)NCCCN3CCOCC3)cc2n1 [Example 19, 2-(5-Methyl-3-phenyl-isoxazol-4-yl)-imidazo[1,2-a]pyridine-7-carboxylic acid (3-morpholin-4-yl-propyl)-amide]
5 | 73.2 nM | Cc1onc(-c2ccccc2)c1-c1cn2cc(-n3cccc3)ccc2n1 [Example 64, 2-(5-Methyl-3-phenyl-isoxazol-4-yl)-6-pyrrol-1-yl-imidazo[1,2-a]pyridine]
6 | 81.7 nM | Cc1ccn2cc(-c3c(-c4ccccc4)noc3C)nc2c1 [Example 8, 7-Methyl-2-(5-methyl-3-phenyl-isoxazol-4-yl)-imidazo[1,2-a]pyridine]
7 | 28.2 nM | Cc1onc(-c2ccccc2)c1-c1cn2cc(NC(=O)C3CCC3)ccc2n1 [Example 58, Cyclobutanecarboxylic acid [2-(5-methyl-3-phenyl-isoxazol-4-yl)-imidazo[1,2-a]pyridin-6-yl]-amide]
8 | 110 nM | Cc1onc(-c2ccccc2)c1-c1cn2cc(Cl)ccc2n1 [Example 26, 6-Chloro-2-(5-methyl-3-phenyl-isoxazol-4-yl)-imidazo[1,2-a]pyridine]
9 | 114 nM | Cc1onc(-c2ccccc2)c1-c1cn2ccc(C(=O)NCCO)cc2n1 [Example 16, 2-(5-Methyl-3-phenyl-isoxazol-4-yl)-imidazo[1,2-a]pyridine-7-carboxylic acid (2-hydroxy-ethyl)-amide]
10 | 143 nM | Cc1onc(-c2ccccc2)c1-c1cn2cc(I)ccc2n1 [Example 52, 6-Iodo-2-(5-methyl-3-phenyl-isoxazol-4-yl)-imidazo[1,2-a]pyridine]
11 | 23.9 nM | Cc1onc(-c2ccccc2)c1-c1cn2cc(C(=O)NCC3CC3)ccc2n1 [Example 31, 2-(5-Methyl-3-phenyl-isoxazol-4-yl)-imidazo[1,2-a]pyridine-6-carboxylic acid cyclopropylmethyl-amide]
12 | 50.7 nM | Cc1onc(-c2ccccc2)c1-c1cn2ccc(NC(=O)Cc3cccnc3)cc2n1 [Example 47, N-[2-(5-Methyl-3-phenyl-isoxazol-4-yl)-imidazo[1,2-a]pyridin-7-yl]-2-pyridin-3-yl-acetamide]
13 | 20.2 nM | Cc1onc(-c2ccccc2)c1-c1cn2cccc(O)c2n1 [Example 5, 2-(5-Methyl-3-phenyl-isoxazol-4-yl)-imidazo[1,2-a]pyridin-8-ol]
14 | 79.4 nM | Cc1onc(-c2ccccc2)c1-c1cn2ccc(NC(=O)C3CC3)cc2n1 [Example 48, Cyclopropanecarboxylic acid [2-(5-methyl-3-phenyl-isoxazol-4-yl)-imidazo[1,2-a]pyridin-7-yl]-amide]
15 | 168 nM | Cc1onc(-c2ccccc2)c1-c1cn2ccc(C(=O)NC3CCC3)cc2n1 [Example 14, 2-(5-Methyl-3-phenyl-isoxazol-4-yl)-imidazo[1,2-a]pyridine-7-carboxylic acid cyclobutylamide]
16 | 167 nM | Cc1onc(-c2ccccc2)c1-c1cn2ccccc2n1 [Example 1, 2-(5-Methyl-3-phenyl-isoxazol-4-yl)-imidazo[1,2-a]pyridine]
17 | 44.5 nM | C#CCNC(=O)c1ccc2nc(-c3c(-c4ccccc4)noc3C)cn2c1 [Example 32, 2-(5-Methyl-3-phenyl-isoxazol-4-yl)-imidazo[1,2-a]pyridine-6-carboxylic acid prop-2-ynylamide]
18 | 54.3 nM | Cc1onc(-c2ccccc2)c1-c1cn2cc(NC(=O)Cc3cccnc3)ccc2n1 [Example 56, N-[2-(5-Methyl-3-phenyl-isoxazol-4-yl)-imidazo[1,2-a]pyridin-6-yl]-2-pyridin-3-yl-acetamide]
19 | 121 nM | Cc1onc(-c2ccccc2)c1-c1cn2cc(Br)ccc2n1 [Example 27, 6-Bromo-2-(5-methyl-3-phenyl-isoxazol-4-yl)-imidazo[1,2-a]pyridine]
20 | 173 nM | Cc1onc(-c2ccccc2)c1-c1cn2cc(C#N)ccc2n1 [Example 28, 2-(5-Methyl-3-phenyl-isoxazol-4-yl)-imidazo[1,2-a]pyridine-6-carbonitrile]
21 | 57.4 nM | Cc1onc(-c2ccccc2)c1-c1cn2cc(-n3ccnc3)ccc2n1 [Example 66, 6-Imidazol-1-yl-2-(5-methyl-3-phenyl-isoxazol-4-yl)-imidazo[1,2-a]pyridine]
22 | 5.5 nM | c1ccc(-c2noc(C3CC3)c2-c2cn3ccccc3n2)cc1 [Example 68, 2-(5-Cyclopropyl-3-phenyl-isoxazol-4-yl)-imidazo[1,2-a]pyridine]
23 | 41.1 nM | Cc1onc(-c2ccccc2)c1-c1cn2cc(-n3cccn3)ccc2n1 [Example 65, 2-(5-Methyl-3-phenyl-isoxazol-4-yl)-6-pyrazol-1-yl-imidazo[1,2-a]pyridine]
24 | 232 nM | Cc1onc(-c2ccccc2)c1-c1cn2cccc(C)c2n1 [Example 2, 8-Methyl-2-(5-methyl-3-phenyl-isoxazol-4-yl)-imidazo[1,2-a]pyridine]
25 | 85.9 nM | Cc1onc(-c2ccccc2)c1-c1cn2ccc(NC(=O)C3CCCC3)cc2n1 [Example 50, Cyclopentanecarboxylic acid [2-(5-methyl-3-phenyl-isoxazol-4-yl)-imidazo[1,2-a]pyridin-7-yl]-amide]
26 | 126 nM | Cc1onc(-c2ccccc2)c1C(=O)COc1cccn2cc(-c3c(-c4ccccc4)noc3C)nc12 [Example 7, 1-(5-Methyl-3-phenyl-isoxazol-4-yl)-2-[2-(5-methyl-3-phenyl-isoxazol-4-yl)-imidazo[1,2-a]pyridin-8-yloxy]-ethanone]
27 | 88.1 nM | Cc1onc(-c2ccccc2)c1-c1cn2cc(N)ccc2n1 [Example 54, 2-(5-Methyl-3-phenyl-isoxazol-4-yl)-imidazo[1,2-a]pyridin-6-ylamine]
28 | 72.3 nM | C#CCNC(=O)c1ccn2cc(-c3c(-c4ccccc4)noc3C)nc2c1 [Example 12, 2-(5-Methyl-3-phenyl-isoxazol-4-yl)-imidazo[1,2-a]pyridine-7-carboxylic acid prop-2-ynylamide]
29 | 150 nM | COC(=O)c1ccn2cc(-c3c(-c4ccccc4)noc3C)nc2c1 [Example 10, 2-(5-Methyl-3-phenyl-isoxazol-4-yl)-imidazo[1,2-a]pyridine-7-carboxylic acid methyl ester]
